Test results taken from patent US20220313700A1, “METHODS FOR TREATING MAP3K8 POSITIVE CANCERS” (CELL RESPONSE, INC., priority 2019, published 2022).
Where two headings read alike, the source gives them in different places.

Columns and labels:
[1] = system: H1975 NSCLC cell line; assay: Alamar blue proliferation assay, H1975; format: cell-based; conditions: H1975, 72 hours, vs no drug, FIG. 14, 16, 17
Method: (§1) The experiments have been performed in the following way. Three thousand cells in suspension in the medium normally used to grow these particular cells have been placed in an individual well within a 96 well tissue culture plate. Following cell attachment, the drugs have added to the wells to achieve the final indicated concentration. Subsequently, the cells were incubated for 72 hours in a standard tissue culture incubator at 37 degrees Celsius in an atmosphere containing 5% CO2. Following 66 hours, Alamar blue was added to the cells. Six hours later (72 hours from the addition of drug) the 96 well plate was placed in a fluorescence plate reader to measure for Alamar blue fluorescence (excitation wavelength of 540-570 nm (peak excitation is 560 nm)). Fluorescence emission was read at 580-610 nm (peak emission is 590 nm). This enabled the determination of the number of live cells present in each well. Wells containing each drug were compared to control wells where no drug was added. In each experiment, each condition was performed in multiple technical repeats of between four and eight times, by using between four and eight wells that were treated identically Each and every experiment was repeated at least three times on different days. In the data shown here, a representative example of each experiment is shown.

[2] = system: ERK phosphorylation; conditions: cited from earlier work
[3] = system: metastatic ROS1 positive non-small cell lung cancer (NSCLC) patients; conditions: cited from earlier work
[4] = system: DLD1 CRC cell line; assay: Alamar blue proliferation assay, DLD1; format: cell-based; conditions: DLD1, 72 hours; for inhibitory effect on proliferation (in words): FIG. 7, FIG. 9, FIG. 20
Method: as §1, with “Following cell attachment, the drugs have added to the wells to achieve the final indicated concentration.” left out, “days.” for “days. In the data shown here, a representative example of each experiment is shown.”

[5] = system: CRC cell line HT29; assay: Alamar blue proliferation assay, HT29; format: cell-based; conditions: HT29, 72 hours, monotherapy, FIG. 13
Method: as §1

[6] = system: HCT15 CRC cell line; assay: Alamar blue proliferation assay, HCT15; format: cell-based; conditions: HCT15, 72 hours; for inhibitory effect on proliferation (in words): FIG. 7, FIG. 9, FIG. 19, FIG. 20; for inhibition of proliferation: vs no drug, FIG. 8, FIG. 9
Method: as §1, with “Following cell attachment, the drugs have added to the wells to achieve the final indicated concentration.” left out, “days.” for “days. In the data shown here, a representative example of each experiment is shown.”

[7] = system: H23 NSCLC cell line; assay: Alamar blue proliferation assay, H23; format: cell-based; conditions: H23, 72 hours, vs no drug
Method: as §1

[8] = system: LOVO colorectal cell line; assay: Alamar blue proliferation assay, LOVO; format: cell-based; conditions: 72 hours, FIG. 7, FIG. 10
Method: as §1, with “Following cell attachment, the drugs have added to the wells to achieve the final indicated concentration.” left out, “days.” for “days. In the data shown here, a representative example of each experiment is shown.”

[9] = system: H358 NSCLC cell line; assay: Alamar blue proliferation assay, H358; format: cell-based; conditions: H358, 72 hours, vs no drug
Method: as §1

[10] = system: 11-18 NSCLC cell line; assay: Alamar blue proliferation assay, 11-18; format: cell-based; conditions: 11-18, 72 hours, FIG. 14, FIG. 17
Method: as §1

[11] = system: A549 NSCLC cell line; assay: Alamar blue proliferation assay, A549; format: cell-based; conditions: A549, 72 hours
Method: as §1

[12] = biological target: COT (Homo sapiens, UniProt P41279); conditions: cited from earlier work
COT, sequence (P41279 whole entry): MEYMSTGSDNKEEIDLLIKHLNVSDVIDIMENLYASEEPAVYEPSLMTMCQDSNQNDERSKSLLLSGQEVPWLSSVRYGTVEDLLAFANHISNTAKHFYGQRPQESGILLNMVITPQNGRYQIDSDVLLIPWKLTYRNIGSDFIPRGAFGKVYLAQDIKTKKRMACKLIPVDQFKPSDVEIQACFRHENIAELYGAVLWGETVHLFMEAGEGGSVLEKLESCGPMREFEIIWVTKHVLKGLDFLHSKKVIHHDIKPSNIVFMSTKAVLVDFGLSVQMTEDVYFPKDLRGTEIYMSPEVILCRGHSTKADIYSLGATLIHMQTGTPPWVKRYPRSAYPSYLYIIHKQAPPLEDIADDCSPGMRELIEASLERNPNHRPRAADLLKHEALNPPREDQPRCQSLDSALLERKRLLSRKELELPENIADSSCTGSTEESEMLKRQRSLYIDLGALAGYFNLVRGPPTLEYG

[13] = system: four other related kinases; conditions: cited from earlier work
[14] = system: intact blood cells; conditions: cited from earlier work
[15] = system: NSCLC patients with EGFR mutations; conditions: cited from earlier work
[16] = system: NSCLC H1975 cell line; assay: siRNA knockdown proliferation assay, H1975; format: cell-based; conditions: H1975, 200 nM, FIG. 21B
Method: as §1, with “Following cell attachment, the drugs have added to the wells to achieve the final indicated concentration.” left out, “days.” for “days. In the data shown here, a representative example of each experiment is shown.”

[17] = system: IKKβ, JNK1α, p38, EGFR, CK1α, CDK2, JAK3, MST4, GSK3β; conditions: cited from earlier work
[18] = system: HPAFII pancreatic cancer cell line; assay: Alamar blue proliferation assay, HPAFII; format: cell-based; conditions: 72 hours, vs no drug
Method: as §1

[19] = system: BxPC3 pancreatic cancer cell line; assay: Alamar blue proliferation assay, BxPC3; format: cell-based; conditions: BxPC3, 72 hours, vs no drug
Method: as §1

[20] = system: STE1 NSCLC cell line; assay: Alamar blue proliferation assay, STE1; format: cell-based; conditions: STE1, 72 hours, FIG. 18
Method: as §1

## CN(C)C/C=C/C(=O)Nc1cc2c(Nc3ccc(F)c(Cl)c3)ncnc2cc1O[C@H]1CCOC1 [afatinib]
[1]
  inhibition of proliferation: 35%

## Cc1c(CNCCO)cncc1-c1ccc2[nH]nc(-c3nc4ccccc4[nH]3)c2c1 [FIG. 2B]
[2]
  inhibition of ERK phosphorylation: inhibits ERK phosphorylation

## C[C@@H](Oc1cc(-c2cnn(C3CCNCC3)c2)cnc1N)c1c(Cl)ccc(F)c1Cl [crizotinib]
[3]; clinical trials
  patients in whom treatment was initially effective: 70-80%

## COc1cc2c(Oc3ccc(NC(=O)C4(C(=O)Nc5ccc(F)cc5)CC4)cc3F)ccnc2cc1OCCCN1CCOCC1 [foretinib]
[3]; in vivo
  clinical benefit in ROS1 positive patients: do not possess clinical benefit

## COc1cc2c(Nc3ccc(Br)cc3F)ncnc2cc1OCC1CCN(C)CC1 [vandetanib]
[1]
  inhibition of proliferation: 20%

## CN(C)C1CCN(C(=O)c2ccc(NC(=O)Nc3ccc(-c4nc(N5CCOCC5)nc(N5CCOCC5)n4)cc3)cc2)CC1 [Gedatolisib]
[4]
  inhibitory effect on proliferation (in words): little to no inhibition
[5]
  inhibitory effect on proliferation (in words): significant inhibitory effect
[6]
  inhibitory effect on proliferation (in words): little to no inhibition

## CCN1CCC(n2cc(CNc3cc(Cl)c4ncc(C#N)c(Nc5ccc(F)c(Cl)c5)c4c3)nn2)CC1 [COT inhibitor, 3-Quinolinecarbonitrile, 8-chloro-4-[(3-chloro-4-fluorophenyl)amino]-6-[[[1-(1-ethyl-4-piperidinyl)-1H-1,2,3-triazol-4-yl]methyl]amino]-3-quinolinecarbonitrile]
[4]
  inhibitory effect on proliferation (in words): variable, but significant, inhibitory effect
[7]
  inhibition of proliferation: about 30%
[6]
  inhibitory effect on proliferation (in words): variable, but significant, inhibitory effect
  inhibition of proliferation: 30%
[8]
  inhibitory effect on proliferation (in words): variable, but significant, inhibitory effect
[9]
  inhibition of proliferation: about 30%
[1]
  inhibition of proliferation: 20%
[10]
  inhibitory effect on proliferation (in words): higher level of inhibition
[11]; FIG. 5, FIG. 6
  inhibitory effect on proliferation (in words): no effect

## CCc1cc2c(cc1N1CCC(N3CCOCC3)CC1)C(C)(C)c1[nH]c3cc(C#N)ccc3c1C2=O [alectinib]
[3]; in vivo
  clinical benefit in ROS1 positive patients: do not possess clinical benefit

## C=CC(=O)N1CCN(c2nc(=O)n(-c3c(C)ccnc3C(C)C)c3nc(-c4c(O)cccc4F)c(F)cc23)[C@@H](C)C1 [AMG510, 6-fluoro-7-(2-fluoro-6-hydroxyphenyl)-1-[4-methyl-2-(propan-2-yl)pyridin-3-yl]-4-[(2S)-2-methyl-4-(prop-2-enoyl)piperazin-1-yl]-1H,2H-pyrido[2,3-d]pyrimidin-2-one]
[7]
  inhibition of proliferation: 50%
[9]
  inhibition of proliferation: 30%

## CN1CCN(c2ccc(C(=O)Nc3n[nH]c4ccc(Cc5cc(F)cc(F)c5)cc34)c(NC3CCOCC3)c2)CC1 [entrectinib]
[3]; in vivo
  duration of response: 28.6 months
  objective response rate (ORR): 78%

## NC(=O)c1cc2c(-c3cccc(-c4ccccc4)c3)cnc(N)c2s1 [FIG. 3B]
[12]; thieno[2,3-c]pyridines, George et al. 2008, Cusack et al. 2009, read-out: COT IC50
  IC50: 170 nM
[13]
  inhibition of four other related kinases relative to COT: at least ten-fold less effective
[14]
  activity when added to intact blood cells: active

## C=CC(=O)Nc1cc(Nc2nccc(-c3cn(C)c4ccccc34)n2)c(OC)cc1N(C)CCN(C)C [Osimertinib]
[15]; osimertinib, or erlotinib/gefitinib/afatinib followed by osimertinib
  progression-free survival, average: 18 months
[15]; patients relapsed after first or second line EGFR inhibitors
  patients who respond: Fifty percent
[16]
  reduction of relative cell number: ~50%

## c1ccc2[nH]c(-c3n[nH]c4ccccc34)nc2c1 [FIG. 2A without methyl group]
[12]; Hu et al. 2011, indazoles with benzimidazole ring, read-out: COT (TPL2) IC50
  IC50: 109 nM
[17]
  kinase selectivity against CDK2, JAK3, MST4, GSK3β: less selectivity
  kinase selectivity against IKKβ, JNK1α, p38, EGFR, CK1α: good kinase selectivity

## CC(C)Nc1cc(-c2c[nH]c(C(=O)N[C@H](CO)c3cccc(Cl)c3)c2)c(Cl)cn1 [Ulixertinib]
[4]; vs no drug, FIG. 8, FIG. 9
  inhibition of proliferation: approximately 20%
[6]
  inhibition of proliferation: 20%
[18]
  inhibition of proliferation: 15%
[19]
  inhibition of proliferation: 32%
[11]; vs no drug, FIG. 6
  inhibition of proliferation: 10%

## C[C@H]1Oc2cc(cnc2N)-c2c(nn(C)c2C#N)CN(C)C(=O)c2ccc(F)cc21 [loraltinib]
[20]
  inhibition of proliferation: 81%
